Experimental data published in US12054449B2, “Phenylcarbamate crystalline form and method for manufacturing the same” (BIO-PHARM SOLUTIONS CO., LTD., priority 2021, dated 2024).
Values after ≈ are worked out from the molar mass of the structure shown. “Also recorded” adds a separate entry of the source. Where two headings read alike, the source gives them in different places.

Tests used:
Assay type in all cases: physicochemical
[1] = Polymorphic screening with solvents and solvent/antisolvent
[2] = Thermodynamic solubility by UPLC in biological media (FaSSGF, FaSSIF); conditions: thermodynamic from solid, 37° C., 24 h orbital shaker, all solids dissolved
Experimental: A thermodynamic solubility in water was determined by providing a suitable concentration of compound prepared by suspending a sufficient compound in water or buffer according to estimated solubilities of the medium and the compound. Quantification was done by UPLC with reference to a standard calibration curve. A solubility was calculated with QuanLynx using a peak area determined by the integration of a peak found at the same retention time as the main peak in the standard injection.
To measure the solubility of ED01748-006-001-00 Pattern 1, experiments were carried out in biological media (Fasted simulated gastric fluid (FaSSGF) and Fasted simulated intestinal fluid (FaSSIF)) at 37° C. […] each of samples was dispersed into each of four vials, 1 mL each of FaSSGF and FaSSIF was added to each of the two vials and incubated in an orbital shaker for 24 hours. After incubation, all solids in each sample were dissolved, and the solubility was measured as follows.

[3] = Storage under stress humidity (40° C./75% RH or RT/97% RH, 7 days) with XRPD, UPLC, 1H NMR
[4] = Change of crystalline form on standing or drying (XRPD); conditions: left overnight on the XRPD disc under laboratory conditions
Experimental: XRPD patterns were detected by CuKα irradiation (30 kV, 10 mA) using a Bruker AXS D2 diffractometer. The analysis was performed using θ-θ geometry and a LynxEye detector at 5 to 42° 2θ with a step size of 0.024° 2θ at 0.1 sec/step.
Samples were run at ambient conditions and prepared as flat specimens using powder received without grinding. About 1 to 2 mg of the sample was lightly pressed on a silicon wafer to obtain a flat surface.

[5] = Melting and cooling of Pattern 1 (DSC A experiment; melting and rapid cooling), degradation by 1H NMR/UPLC
Experimental: A portion of ED01748-006-001-00 was heated in a differential scanning calorimeter at 10° C./min to 110° C., and then cooled to 30° C. at 50° C./min. The contents of a DSC pan were analyzed by ^1H NMR.
Each (about 10 mg) of two ED01748-006-001-00 samples was put into a vial, and then into a drying pistol which had been preheated to 110° C. for 10 minutes under ambient pressure. The molten sample was removed, followed by rapid cooling with dry ice. The glass material from the first sample was rapidly crystallized by impacting a part that characterized it. As a result of XRPD analysis, the glass material was identified as Pattern 1 (FIG. 7).

[6] = Gravimetric vapor sorption (GVS)
Experimental: Sorption isotherms were obtained using an SMS DVS intrinsic water absorption analyzer controlled by SMS Analysis Suite software. A sample temperature was maintained at 25° C. throughout. Humidity was controlled by a mixed stream of dry and wet nitrogen with a total flow rate of 200 mL/min. The relative humidity was measured with a calibrated Rotronic probe (dynamic range: 1.0-100% RH) located near the sample. The weight change (mass relaxation) of the sample as a function of % RH was continuously monitored using a microbalance (accuracy±0.005 mg). 5 to 20 mg of the sample was stored in a prepared stainless steel mesh basket under atmospheric conditions.

[7] = 110° C. for 10 minutes, rapid cooling with dry ice

- Result ([1]; Exp. 1, 2-propanol 60 ul / Toluene 100 ul, Shaken RT, refrigerated): Soluble
- Initial result ([1]; Exp. 1, solvent 2-propanol 60 ul, anti-solvent Toluene 100 ul): Soluble
- Result ([1]; Exp. 2, 2-propanol 60 ul / Heptane 200 ul, Shaken RT, refrigerated): Soluble
- Initial result ([1]; Exp. 2, solvent 2-propanol 60 ul, anti-solvent Heptane 200 ul): Soluble
- Result ([1]; Exp. 3, 2-propanol 60 ul / Diethyl ether 100 ul, Shaken RT, refrigerated): Soluble
- Initial result ([1]; Exp. 3, solvent 2-propanol 60 ul, anti-solvent Diethyl ether 100 ul): Soluble
- Result ([1]; Exp. 4, 2-propanol 60 ul / TBME 200 ul, Shaken RT, refrigerated): Soluble
- Initial result ([1]; Exp. 4, solvent 2-propanol 60 ul, anti-solvent TBME 200 ul): Soluble
- Result ([1]; Exp. 5, acetone 60 ul / Toluene 100 ul, Shaken RT, refrigerated): Soluble
- Initial result ([1]; Exp. 5, solvent acetone 60 ul, anti-solvent Toluene 100 ul): Soluble
- Result ([1]; Exp. 6, acetone 60 ul / Heptane 175 ul, notes: oil): oil
- Initial result ([1]; Exp. 6, solvent acetone 60 ul, anti-solvent Heptane 175 ul): Cloudy
- Result ([1]; Exp. 7, acetone 60 ul / Diethyl ether 100 ul, Shaken RT, refrigerated): Soluble
- Initial result ([1]; Exp. 7, solvent acetone 60 ul, anti-solvent Diethyl ether 100 ul): Soluble
- Result ([1]; Exp. 8, acetone 60 ul / TBME 100 ul, Shaken RT, refrigerated): Soluble
- Initial result ([1]; Exp. 8, solvent acetone 60 ul, anti-solvent TBME 100 ul): Soluble
- Result: crystalline form obtained (XRPD) ([1]; Exp. 9, chloroform 60 ul / Toluene 100 ul): Pattern 9
- Result ([1]; Exp. 9, chloroform 60 ul / Toluene 100 ul, Shaken RT, solid XRPD): Crystalline
- Initial result ([1]; Exp. 9, solvent chloroform 60 ul, anti-solvent Toluene 100 ul): Precipitate
- Result: crystalline form obtained (XRPD) ([1]; Exp. 10, chloroform 60 ul / Heptane 25 ul): Pattern 8
- Result ([1]; Exp. 10, chloroform 60 ul / Heptane 25 ul, Shaken RT, solid XRPD): Crystalline
- Initial result ([1]; Exp. 10, solvent chloroform 60 ul, anti-solvent Heptane 25 ul): Precipitate
- Result ([1]; Exp. 11, chloroform 60 ul / Diethyl ether 100 ul, Shaken RT, refrigerated): Soluble
- Initial result ([1]; Exp. 11, solvent chloroform 60 ul, anti-solvent Diethyl ether 100 ul): Soluble
- Result ([1]; Exp. 12, chloroform 60 ul / TBME 100 ul, Shaken RT, refrigerated): Soluble
- Initial result ([1]; Exp. 12, solvent chloroform 60 ul, anti-solvent TBME 100 ul): Soluble
- Result: crystalline form obtained (XRPD) ([1]; Exp. 13, DCM 80 ul / Toluene 100 ul): Pattern 9
- Result ([1]; Exp. 13, DCM 80 ul / Toluene 100 ul, Shaken RT, solid XRPD): Crystalline
- Initial result ([1]; Exp. 13, solvent DCM 80 ul, anti-solvent Toluene 100 ul): Precipitate
- Result ([1]; Exp. 14 (second line so numbered), DCM 80 ul / Diethyl ether 100 ul, Shaken RT, refrigerated): Soluble
- Initial result ([1]; Exp. 14 (second line so numbered), solvent DCM 80 ul, anti-solvent Diethyl ether 100 ul): Soluble
- Result: crystalline form obtained (XRPD) ([1]; Exp. 14, DCM 80 ul / Heptane 50 ul): Pattern 8
- Result ([1]; Exp. 14, DCM 80 ul / Heptane 50 ul, Shaken RT, solid XRPD): Crystalline
- Initial result ([1]; Exp. 14, solvent DCM 80 ul, anti-solvent Heptane 50 ul): Precipitate
- Result ([1]; Exp. 16, DCM 80 ul / TBME 100 ul, Shaken RT, refrigerated): Soluble
- Initial result ([1]; Exp. 16, solvent DCM 80 ul, anti-solvent TBME 100 ul): Soluble
- Result: crystalline form obtained (XRPD) ([1]; Exp. 18, ethyl acetate 60 ul / Heptane 100 ul): Pattern 11
- Result ([1]; Exp. 18, ethyl acetate 60 ul / Heptane 100 ul, Oil, then solid formed): Crystalline
- Initial result ([1]; Exp. 18, solvent ethyl acetate 60 ul, anti-solvent Heptane 100 ul): Cloudy
- Result ([1]; Exp. 19, ethyl acetate 60 ul / Diethyl ether 100 ul, Shaken RT, refrigerated): Soluble
- Initial result ([1]; Exp. 19, solvent ethyl acetate 60 ul, anti-solvent Diethyl ether 100 ul): Soluble
- Result ([1]; Exp. 20, ethyl acetate 60 ul / TBME 100 ul, Shaken RT, refrigerated): Soluble
- Initial result ([1]; Exp. 20, solvent ethyl acetate 60 ul, anti-solvent TBME 100 ul): Soluble
- Result ([1]; Exp. 21, ethyl acetate 60 ul / Pentane 225 ul, notes: Oil): Oil
- Initial result ([1]; Exp. 21, solvent ethyl acetate 60 ul, anti-solvent Pentane 225 ul): Cloudy
- Result ([1]; Exp. 22, ethyl acetate 60 ul / cyclohexane 350 ul, Shaken RT, solid XRPD): Crystalline,
- Initial result ([1]; Exp. 22, solvent ethyl acetate 60 ul, anti-solvent cyclohexane 350 ul): Precipitate
- Result ([1]; Exp. 23, ethyl acetate 60 ul / methylcyclohexane 325 ul, Shaken RT, solid XRPD): Crystalline,
- Initial result ([1]; Exp. 23, solvent ethyl acetate 60 ul, anti-solvent methylcyclohexane 325 ul): Precipitate
- Result ([1]; Exp. 24, chloroform 60 ul / Pentane 75 ul, Shaken RT, solid XRPD): Crystalline
- Initial result ([1]; Exp. 24, solvent chloroform 60 ul, anti-solvent Pentane 75 ul): Precipitate
- Result ([1]; Exp. 25, chloroform 60 ul / cyclohexane 125 ul, Shaken RT, solid XRPD): Crystalline
- Initial result ([1]; Exp. 25, solvent chloroform 60 ul, anti-solvent cyclohexane 125 ul): Precipitate
- Result ([1]; Exp. 26, chloroform 60 ul / methylcyclohexane 75 ul, Shaken RT, solid XRPD): Crystalline
- Initial result ([1]; Exp. 26, solvent chloroform 60 ul, anti-solvent methylcyclohexane 75 ul): Precipitate
- Result ([1]; Exp. 27, DCM 80 ul / Pentane 100 ul, Shaken RT, solid XRPD): Crystalline
- Initial result ([1]; Exp. 27, solvent DCM 80 ul, anti-solvent Pentane 100 ul): Precipitate
- Result ([1]; Exp. 28, DCM 80 ul / cyclohexane 50 ul, Shaken RT, solid XRPD): Crystalline
- Initial result ([1]; Exp. 28, solvent DCM 80 ul, anti-solvent cyclohexane 50 ul): Precipitate
- Result ([1]; Exp. 29, DCM 80 ul / methylcyclohexane 50 ul, Shaken RT, solid XRPD): Crystalline
- Initial result ([1]; Exp. 29, solvent DCM 80 ul, anti-solvent methylcyclohexane 50 ul): Precipitate
- Result ([1]; Exp. number not given, ethyl acetate 60 ul / Toluene 100 ul, Shaken RT, refrigerated): Soluble
- Initial result ([1]; Exp. number not given, solvent ethyl acetate 60 ul, anti-solvent Toluene 100 ul): Soluble
- solubility at 24 h ([2]; fasted simulated gastric fluid (FaSSGF), fassgf or other biorelevant, fasted simulated gastric fluid, read-out: FaSSGF solubility after 24 h): 16.8 mg/mL (≈ 73.3 mM)
- solubility at 24 h ([2]; fasted simulated intestinal fluid (FaSSIF), fassif, fasted simulated intestinal fluid, read-out: FaSSIF solubility after 24 h): 14.1 mg/mL (≈ 61.2 mM)
- 1H NMR post storage at 40° C./75% RH for 7 days ([3]; 40° C./75% RH): Consistent with structure
- UPLC purity post storage at 40° C./75% RH for 7 days ([3]; 40° C./75% RH, initial UPLC purity 98.6%): 97.4%
- XRPD post storage at 40° C./75% RH for 7 days (change in form) ([3]; 40° C./75% RH, listed as Pattern 1): no morphological change
- 1H NMR purity post storage at RT/97% RH for 7 days ([3]; RT/97% RH): Consistent with structure
- UPLC purity post storage at RT/97% RH for 7 days ([3]; RT/97% RH, initial UPLC purity 98.6%): 97.7%
- XRPD post storage at RT/97% RH for 7 days (change in form) ([3]; RT/97% RH, listed as Pattern 1): no morphological change
- Form by XRPD after being left overnight [4]: Pattern 3
- Decomposition after melting and rapid cooling (1H NMR or UPLC) [5, 7]: not significantly decomposed
- UPLC purity after melting and rapid cooling [5, 7]: 98.7%
- Degradation after melting and cooling (1H NMR) ([5]; heated 10° C./min to 110° C., cooled to 30° C. at 50° C./min): no degradation or migration
- GVS mass increase ([6]; second sorption cycle, 0-90% RH, 25° C., listed as Pattern 1): 0.14%
Structure (SMILES): C[C@H](OC(N)=O)[C@@H](O)c1ccccc1Cl [ED01748-006-001-00, 1-(2-chlorophenyl)-(S)-1-hydroxypropyl-(S)-2-carbamate]
- XRPD post storage at 40° C./75% RH for 7 days (change in form) ([3]; 40° C./75% RH): no change in morphology; also recorded: Shows no change in form by XRPD post storage
- XRPD post storage at RT/97% RH for 7 days (change in form) ([3]; RT/97% RH): no change in morphology; also recorded: Shows no change in form by XRPD post storage
- XRPD post GVS (change in form) ([6]; after GVS experiment): no change in morphology; also recorded: Shows no change in form by XRPD post GVS
